Consider 7 compounds from US10316020B2, “Indane derivatives and the use thereof as soluble guanylate cyclase activators” (NOVARTIS AG, priority 2015, dated 2019).

The structures appear in SMILES notation. Like-named read-outs stand apart in the source and are kept apart here. A value given as a limit tells only on which side of the number the result lay.

Data set [1] deals with T1, soluble guanylate cyclase (GUCYA3/GUCYB3) overexpressed in CHO cells (Homo sapiens, UniProt Q02108+Q02153).
T1 construct: expressed in transfected cells
T1 sequence (Q02108 1-690 partner): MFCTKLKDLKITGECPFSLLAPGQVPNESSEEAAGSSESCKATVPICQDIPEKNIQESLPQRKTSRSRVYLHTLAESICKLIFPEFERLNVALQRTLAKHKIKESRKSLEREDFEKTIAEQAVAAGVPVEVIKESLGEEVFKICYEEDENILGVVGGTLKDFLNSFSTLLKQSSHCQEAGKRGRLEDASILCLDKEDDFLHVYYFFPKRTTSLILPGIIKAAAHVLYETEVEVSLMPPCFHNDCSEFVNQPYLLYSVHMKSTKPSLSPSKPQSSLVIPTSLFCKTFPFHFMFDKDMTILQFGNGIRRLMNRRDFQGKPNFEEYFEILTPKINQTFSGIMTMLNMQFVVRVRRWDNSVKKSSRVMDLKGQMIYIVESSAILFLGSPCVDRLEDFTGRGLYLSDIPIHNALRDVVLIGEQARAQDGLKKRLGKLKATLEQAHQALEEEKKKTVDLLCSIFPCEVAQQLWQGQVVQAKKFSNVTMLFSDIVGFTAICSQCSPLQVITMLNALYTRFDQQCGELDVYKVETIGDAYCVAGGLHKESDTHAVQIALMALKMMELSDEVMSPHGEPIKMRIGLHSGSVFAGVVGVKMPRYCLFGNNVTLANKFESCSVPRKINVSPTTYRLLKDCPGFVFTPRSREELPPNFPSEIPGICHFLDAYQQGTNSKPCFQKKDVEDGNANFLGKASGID
T1 sequence (Q02153 1-619): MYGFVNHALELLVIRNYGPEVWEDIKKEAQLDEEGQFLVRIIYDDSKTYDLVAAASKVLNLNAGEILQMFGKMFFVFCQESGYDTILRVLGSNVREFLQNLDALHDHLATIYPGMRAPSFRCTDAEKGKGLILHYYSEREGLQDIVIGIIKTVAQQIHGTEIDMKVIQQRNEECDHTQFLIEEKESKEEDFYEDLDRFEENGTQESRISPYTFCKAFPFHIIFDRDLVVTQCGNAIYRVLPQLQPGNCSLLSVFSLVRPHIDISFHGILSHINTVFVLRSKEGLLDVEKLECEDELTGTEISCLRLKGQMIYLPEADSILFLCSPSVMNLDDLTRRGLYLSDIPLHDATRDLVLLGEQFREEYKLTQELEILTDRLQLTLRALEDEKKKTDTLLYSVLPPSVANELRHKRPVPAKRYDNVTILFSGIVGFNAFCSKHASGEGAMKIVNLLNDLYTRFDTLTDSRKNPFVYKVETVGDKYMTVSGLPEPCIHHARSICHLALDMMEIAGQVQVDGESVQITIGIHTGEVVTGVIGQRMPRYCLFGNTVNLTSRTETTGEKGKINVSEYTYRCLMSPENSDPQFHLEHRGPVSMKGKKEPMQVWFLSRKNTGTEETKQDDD
Briefly: CHO cellular assay (cGMP production, HTRF). The data set is classed as cell-based. The gist of the method: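 Stably transfected CHO-K1 clone expressing human sGC α/β subunits, treated 1 h at room temperature with compounds in HBSS with 0.1% BSA, 1 mM IBMX and 20 uM ODQ (0.5% DMSO). cGMP measured by HTRF and interpolated from standard curve. EC50 from 4-parameter sigmoidal fit.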

Data set [2] can be described thus: Pharmacokinetic clearance in intravenously dosed rats. Type of data set: in vivo. To be noted: male, Sprague-Dawley, rat, whole blood, iv, 0.5 mg/kg. The protocol: Sprague-Daley rats were administered sGC activators intravenously to assess the systemic clearance rates of the compounds from blood by non-compartmental analysis. Compounds with high clearance rates may be less prone to exert unwanted systemic (non-local) pharmocoligcal effects, which may be a benefical property for a compound intended to be dosed via topical ocular administration with the aim of exerting a pharmacological reponse locally in the eye.
In order to assess the pharmacokinetic parameters, male Sprague-Dawley rats were given 1 mL/Kg of the dosing solution (delineated in the table below) containing a test article (0.5 mg/kg) per kg of body weight via slow intravenous injection into an indwelling jugular vein catheter in a discrete PK study. Alternatively, male Sprague-Dawley rats were given 1 mL/Kg of the dosing solution containing three test articles (0.5 mg/kg each, 1.5 mg/kg total) per kg of body weight via slow intravenous injection into an indwelling jugular vein catheter in a cassette PK study. Diet and water was provided ad libitum without exception. At specified time following a single intravenous bolus injection, approximately 100 μL of whole blood was collected from indwelling catheter in jugular vein. The blood was stored frozen at −20° C. before an LC-MS/MS method was used to quantitate drug levels in the blood. All pharmacokinetic (PK) parameters were derived from concentration-time data by non-compartmental analyses using WinNonlin Phoenix version 6.4 (Certara, St. Louis, Mo.). For the intravenous dose, the concentration of unchanged compound at time 0 was calculated based on a log-linear regression of first two data points to back-extrapolate C(0). The area under the concentration-time curve was calculated using the linear trapezoidal rule.
Data in Table 2 collected using the assay of Biological Example 2 compares compounds from the present invention to other sGC activators previously disclosed PCT/IB2015/055006 filed Jul.

[3] abbreviates: CHO cellular assay, as repeated in Table 2, read-out: EC50 from biological Example #1.
Setting [4] is: i.v. 0.5 mg/kg, Discrete - D (10% propylene glycol, 10% Solutol HS15, PBS).
[5] abbreviates: CHO GUCY clone 8E10, assay buffer with 1 mM IBMX, 20 uM ODQ, 1 h at room temperature, cGMP HTRF, quantification limit 0.0005 μM, read-out: Mean EC50.

As to `CCc1cc(NC2CCc3cccc(-c4cccc(-n5ncc(C(=O)O)c5CC)n4)c32)ccc1C1=CCN(C(=O)C2CC2)CC1` (single isomer, unassigned; (+)) [(+)-1-(6-(3-((4-(1-(cyclopropanecarbonyl)-1,2,3,6-tetrahydropyridin-4-yl)-3-ethylphenyl)amino)-2,3-dihydro-1H-inden-4-yl)pyridin-2-yl)-5-ethyl-1H-pyrazole-4-carboxylic acid, reference compound], the EC50 – broadly, the concentration giving half of the maximal effect – in data set [1] (setting [3]) was under 0.5 nM. Further, the clearance (usually the rate of elimination divided by the concentration) in data set [2] (setting [4]) is 38 mL/min/kg.

Take `CCc1cc(NC2CCc3cccc(-c4cccc(-n5ncc(C(=O)O)c5OC)c4)c32)ccc1C1CCN(C(=O)[C@H](C)O)CC1` (single isomer, unassigned; (+)) [Example 4A]: the EC50 in data set [1] (setting [5]) and in data set [1] (setting [3]) was under 0.5 nM throughout. In data set [2] (i.v. 0.5 mg/kg, Discrete - C (20% PEG 300, 10% Solutol HS15, PBS)), this compound displayed a clearance of over 100 mL/min/kg.

For the compound `CCc1cc(NC2CCc3cccc(-c4cccc(-n5ncc(C(=O)O)c5N)n4)c32)ccc1C1CCN(C(=O)C2CC2)CC1` (single isomer, unassigned; (+)) [Example 18A, (+)-5-Amino-1-(6-(3-((4-(1-(cyclopropanecarbonyl)piperidin-4-yl)-3-ethylphenyl)amino)-2,3-dihydro-1H-inden-4-yl)pyridin-2-yl)-1H-pyrazole-4-carboxylic acid], the EC50 in data set [1] (setting [5]) and in data set [1] (setting [3]) was 7 nM throughout. This compound also gave a clearance in data set [2] (setting [4]) of 98 mL/min/kg.

Consider `Cc1cc(C2CCN(C(=O)[C@H](C)O)CC2)ccc1NC1CCc2cccc(-c3cccc(-n4ncc(C(=O)O)c4C)n3)c21` (single isomer, unassigned; (+)) [reference compound], for which the EC50 in data set [1] (setting [3]) was under 0.5 nM. The clearance in data set [2] (i.v. 0.5 mg/kg each, three test articles, Cassette - E (10% propylene glycol, 10% Solutol HS15, PBS)) is 48.3 mL/min/kg.

Regarding `CCc1cc(C[C@H]2CCc3cccc(-c4cccc(-n5ncc(C(=O)O)c5OC)c4)c32)ccc1C1CCN(C(=O)C2CC2)CC1` [Example 1A, (+)-(R)-1-(3-(3-(4-(1-(Cyclopropanecarbonyl)piperidin-4-yl)-3-ethylbenzyl)-2,3-dihydro-1H-inden-4-yl)phenyl)-5-methoxy-1H-pyrazole-4-carboxylic acid], the EC50 in data set [1] (setting [5]) and in data set [1] (setting [3]) was under 0.6 nM in each case. In data set [2] (i.v. 0.5 mg/kg, Discrete - A (10% propylene glycol, 1 eq NaOH, 25% of 20% Solutol HS15, PBS)), this compound gave a clearance of over 100 mL/min/kg.

Take `CCc1cc(N[C@H]2CCc3cccc(-c4cccc(-n5ncc(C(=O)O)c5OC)c4)c32)ccc1C1CCN(C(=O)C2CC2)CC1` [Example 3A, (+)-(S)-1-(3-(3-((4-(1-(Cyclopropanecarbonyl)piperidin-4-yl)-3-ethylphenyl)amino)-2,3-dihydro-1H-inden-4-yl)phenyl)-5-methoxy-1H-pyrazole-4-carboxylic acid]: the EC50 in data set [1] (setting [5]) and in data set [1] (setting [3]) was under 0.5 nM in each case. In addition, the clearance in data set [2] (i.v. 0.5 mg/kg, Discrete - B (20% PEG 300, 1 eq NaOH, 10% Solutol HS15, PBS)) is over 100 mL/min/kg.

Turning to `CCc1cc(O[C@H]2CCc3cccc(-c4cccc(-n5ncc(C(=O)O)c5OC)c4)c32)ccc1C1CCN(C(=O)C2CC2)CC1` [Example 5, (+)-(S)-1-(3-(3-(4-(1-(Cyclopropanecarbonyl)piperidin-4-yl)-3-ethylphenoxy)-2,3-dihydro-1H-inden-4-yl)phenyl)-5-methoxy-1H-pyrazole-4-carboxylic acid], the EC50 in data set [1] (setting [5]) and in data set [1] (setting [3]) was under 0.5 nM each time. In data set [2] (setting [4]), this compound displayed a clearance of 89 mL/min/kg.
